Patent US7964624B1, “Inhibitors of serine proteases” (priority 2005, dated 2011)

biological target: T1, full-length hepatitis C viral protein NS3•4A (Hepatitis C virus genotype 1a, UniProt P27958); experiment: biochemical; design: species or system HCV sub-type strain 1a; conditions: Enzyme Assay 2, HCV NS3 Peptide Cleavage Assay, apparent Ki
T1 construct: hexa-histidine (N); made in house; host or cells: Sf9 insect cells (baculovirus, pVL1392)

Question: Which Ki does the source give for CCC[C@H](NC(=O)C1C[C@]2(CC(c3cc(C)c(OC)c(C)c3)=NO2)CN1C(=O)[C@@H](NC(=O)[C@@H]1C[C@H]1c1c[nH]cn1)C(C)(C)C)C(=O)C(=O)NC1CC1 (stereo partly drawn) [Compound 907] here?
Answer: 0.1 to 0.5 µM

Question: How did the Ki turn out when CCC[C@H](NC(=O)[C@@H]1C[C@]2(CC(c3cc(C)c(OCC)c(Cl)c3)=NO2)CN1C(=O)[C@@H](NC(=O)[C@@H]1C[C@H]1c1ccccc1)C(C)(C)C)C(=O)C(=O)NC1CC1 [Compound 915] was run?
Answer: < 0.1 µM

Question: Which Ki does the source give for CCC[C@H](NC(=O)[C@@H]1C[C@]2(CC(c3cccc(Cl)c3)=NO2)CN1C(=O)[C@@H](NC(=O)[C@@H]1C[C@H]1c1c[nH]cn1)C(C)(C)C)C(=O)C(=O)NC1CC1 [Compound 918] here?
Answer: 0.1 to 0.5 µM

Question: For CCC[C@H](NC(=O)[C@@H]1C[C@]2(CC(c3cccc(Cl)c3)=NO2)CN1C(=O)[C@@H](NC(=O)[C@H]1C[C@@H]1C1CCCCC1)C(C)(C)C)C(=O)C(=O)NC1CC1 [Compound 920], which Ki is on record?
Answer: 0.1 to 0.5 µM

Question: With CCC[C@H](NC(=O)[C@@H]1C[C@]2(CC(c3cccc(Cl)c3)=NO2)CN1C(=O)[C@@H](NC(=O)[C@@H]1CC12CCOCC2)C(C)(C)C)C(=O)C(=O)NC1CC1 [Compound 923] as the molecule, how does the Ki read?
Answer: < 0.1 µM

Question: With CNC(=O)C(=O)[C@H](CC1CC1)NC(=O)[C@@H]1C[C@]2(CC(c3cccc(Cl)c3)=NO2)CN1C(=O)[C@@H](NC(=O)[C@@H]1CC12CCOCC2)C(C)(C)C [Compound 927] as the molecule, how does the Ki read?
Answer: < 0.1 µM

Question: With CCC[C@H](NC(=O)[C@@H]1C[C@]2(CC(c3cccc(Cl)c3)=NO2)CN1C(=O)[C@@H](NC(=O)[C@H]1C[C@@H]1C1CCCCC1)C(C)(C)C)C(=O)C(=O)NC [Compound 928] as the molecule, how does the Ki read?
Answer: 0.1 to 0.5 µM

Question: For CCC[C@H](NC(=O)[C@@H]1C[C@]2(CC(c3cccc(Cl)c3)=NO2)CN1C(=O)[C@@H](NC(=O)[C@@H]1CC12CCOCC2)C(C)(C)C)C(=O)C(=O)NC [Compound 931], which Ki is on record?
Answer: 0.1 to 0.5 µM

Question: How did the Ki turn out when CCC[C@H](NC(=O)[C@@H]1C[C@]2(CC(c3cccc(Cl)c3)=NO2)CN1C(=O)[C@@H](NC(=O)[C@H]1C[C@@H]1C1CCCCC1)C(C)(C)C)C(=O)C(N)=O [Compound 932] was run?
Answer: < 0.1 µM

Question: With CCOc1cc(OC)c(C2=NO[C@]3(C2)C[C@@H](C(=O)N[C@@H](CC2CC2)C(=O)C(=O)NC)N(C(=O)[C@@H](NC(=O)OC(C)(C)C)C(C)(C)C)C3)cc1Cl [Compound 942] as the molecule, how does the Ki read?
Answer: < 0.1 µM

Question: With CCOc1cc(OC)c(C2=NO[C@]3(C2)C[C@@H](C(=O)N[C@@H](CC2CC2)C(=O)C(=O)NC)N(C(=O)[C@@H](NC(=O)OC2CCCC2)C(C)(C)C)C3)cc1Cl [Compound 947] as the molecule, how does the Ki read?
Answer: < 0.1 µM

Question: For CCC[C@H](NC(=O)[C@@H]1C[C@]2(CC(c3cccc(Cl)c3)=NO2)CN1C(=O)[C@@H](NC(=O)[C@H]1C[C@@H]1C1CCCC1)C(C)(C)C)C(=O)C(=O)NC1CC1 [Compound 953], which Ki is on record?
Answer: < 0.1 µM

Question: With CCC[C@H](NC(=O)[C@@H]1C[C@]2(CC(c3cccc(Cl)c3)=NO2)CN1C(=O)[C@@H](NC(=O)[C@@H]1C[C@H]1C1CCCC1)C(C)(C)C)C(=O)C(=O)NC1CC1 [Compound 954] as the molecule, how does the Ki read?
Answer: < 0.1 µM

Question: How did the Ki turn out when CNC(=O)C(=O)[C@H](CC1CC1)NC(=O)[C@@H]1C[C@]2(CC(c3cccc(Cl)c3)=NO2)CN1C(=O)[C@@H](NC(=O)C1CC1c1ccn(C)n1)C(C)(C)C (stereo partly drawn) [Compound 955] was run?
Answer: < 0.1 µM

Question: Which Ki does the source give for CCC[C@H](NC(=O)[C@@H]1C[C@]2(CC(c3cc(C)c(OCC)c(C)c3)=NO2)CN1C(=O)[C@@H](NC(=O)CC1CCCCC1)C(C)(C)OC)C(=O)C(=O)NC1CC1 [Compound 956] here?
Answer: < 0.1 µM

Question: How did the Ki turn out when CCC[C@H](NC(=O)[C@@H]1C[C@]2(CC(c3cccc(Cl)c3)=NO2)CN1C(=O)[C@@H](NC(=O)OCC1(C)COC1)C(C)(C)C)C(=O)C(=O)NC1CC1 [Compound 957] was run?
Answer: 0.1 to 0.5 µM

Question: How did the Ki turn out when CNC(=O)C(=O)[C@H](CC1CC1)NC(=O)[C@@H]1C[C@]2(CC(c3cccc(Cl)c3)=NO2)CN1C(=O)[C@@H](NC(=O)Cc1cccnc1)C(C)(C)C [Compound 958] was run?
Answer: < 0.1 µM

Question: For CNC(=O)C(=O)[C@H](CC1CC1)NC(=O)[C@@H]1C[C@]2(CC(c3cccc(Cl)c3)=NO2)CN1C(=O)[C@@H](NC(=O)[C@H]1CC1c1ccccc1)C(C)(C)OC (stereo partly drawn) [Compound 959], which Ki is on record?
Answer: < 0.1 µM
